{"source": "patent US8012959B2", "about": "“Diaminopyrimidinecarboxamide derivative” (Astellas Pharma Inc., priority 2002, dated 2011)", "key": {"neutrophil infiltration": {"system": "neutrophil infiltration", "test": "SO2 gas-induced intra-alveolar neutrophil infiltration model", "type": "in vivo", "settings": "hydrochloride, oral administration, 10 mg/kg, for 2 days, male C57BL/6 mice, SO2 gas 600 ppm, alveolar lavage fluid", "experimental": "Evaluation Using SO2 Gas-induced Intra-alveolar Neutrophil Infiltration Model Mouse Asthma Model\nMale C57BL/6 mice were exposed to SO2 gas (600 ppm) for 3 hours and sacrificed by bloodletting 48 hours after the exposure, and then alveolar lavage was carried out. After the measurement of total white blood cell count in the alveolar lavage fluid, cell smear preparations were stained to calculate existing ratio of neutrophil based on its morphological characteristics. The number of neutrophils was calculated from the total white blood cell count and existing ratio of respective cells. A compound to be tested or a control, 0.5% methyl cellulose, was orally administered for 2 days from just before the exposure or just after the exposure to before the alveolar lavage."}, "STAT 6": {"target": "T1, STAT 6 (Mus musculus, UniProt P52633)", "T1 construct": "An STAT 6 reporter cell CI/FW4 was constructed by the above operation; endogenous in cells; host or cells: CI/FW4 (FW4 cell stably carrying the pGL2-CI/bs luciferase reporter)", "T1 sequence (P52633 1-837)": "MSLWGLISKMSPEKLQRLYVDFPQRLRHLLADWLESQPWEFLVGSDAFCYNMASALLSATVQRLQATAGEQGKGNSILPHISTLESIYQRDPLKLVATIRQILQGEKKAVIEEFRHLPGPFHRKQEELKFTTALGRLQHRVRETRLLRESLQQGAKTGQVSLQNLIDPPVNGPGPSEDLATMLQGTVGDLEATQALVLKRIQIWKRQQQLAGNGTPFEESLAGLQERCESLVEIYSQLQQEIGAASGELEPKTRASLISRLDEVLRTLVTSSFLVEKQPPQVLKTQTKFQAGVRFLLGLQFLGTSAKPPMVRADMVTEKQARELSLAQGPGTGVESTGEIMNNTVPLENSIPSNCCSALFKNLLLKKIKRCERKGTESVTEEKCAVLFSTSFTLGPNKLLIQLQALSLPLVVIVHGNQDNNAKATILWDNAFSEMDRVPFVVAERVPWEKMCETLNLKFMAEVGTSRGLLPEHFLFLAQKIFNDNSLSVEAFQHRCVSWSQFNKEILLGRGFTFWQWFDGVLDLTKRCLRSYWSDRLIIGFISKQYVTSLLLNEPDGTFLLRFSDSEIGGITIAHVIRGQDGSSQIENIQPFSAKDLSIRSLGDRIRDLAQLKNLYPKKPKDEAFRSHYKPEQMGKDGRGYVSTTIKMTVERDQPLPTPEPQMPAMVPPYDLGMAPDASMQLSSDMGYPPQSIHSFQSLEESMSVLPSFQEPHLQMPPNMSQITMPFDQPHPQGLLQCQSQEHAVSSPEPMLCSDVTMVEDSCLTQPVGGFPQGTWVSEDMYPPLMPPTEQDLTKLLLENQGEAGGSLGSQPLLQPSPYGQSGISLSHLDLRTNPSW", "test": "STAT 6-dependent reporter activity (IL-4-stimulated CI/FW4 luciferase reporter cell)", "type": "cell-based, human", "experimental": "Measurement of STAT 6-Dependent Reporter Activity 1) Construction of STAT 6 Reactive Reporter Plasmid A STAT 6 reporter plasmid pGL2-CI was prepared by the following method. […] Also, […] sequence DNA molecules (SEQ ID NOs:3 and 4) contained in the adenovirus major late promoter were annealed and inserted into BglII and HindIII sites of the same vector. Thereafter, pGL2-CI/bs was constructed by inserting the blasticidin resistance gene of pUCSV-BD (Funakoshi) into BamHI site of the constructed pGL2-CI. 2) Construction of STAT 6 Reporter Cell Gene transfer of […] into a human IL-4 reactive cell FW4 cell (Mol. Cell. Biol., 14: 5433-5440) was carried out by the electroporation method (320 V, 960 μF/0.4 cm cuvette (Nippon Bio-Rad Laboratories)), and 6 μg/ml of blasticidin (Funakoshi) was added 40 hours thereafter to select a resistant cell. Confirmation of constant transfer of the reporter plasmid was carried out by detecting luciferase induce by IL-4 stimulation. An STAT 6 reporter cell CI/FW4 was constructed by the above operation. 3) STAT Reporter Assay Using CI/FW4 Cell Stimulation of the CI/FW4 cell (1×10^4 cells/0.1 ml) with 10 ng/ml of human IL-4 (Genzyme Techne) was carried out using a white 96 well plate (Nunc). In the case of the evaluation of compounds, compound dilutions were added to the wells before inoculating the cells into the 96 well plate. […] Thereafter, 50 μl of a luciferase substrate solution (10 mM Tris-HCl pH 7.8, 5 mM luciferin, 2 mM coenzyme A, 2 mM ATP, 0.5 mM MgCl2 and 2 mM Mg(OH)2) was added, followed by stirring for 1 minute. Then, the luciferase activity was measured using ML3000 luminometer (Dynatech Laboratories, Inc). Inhibitory activities of tested compounds were evaluated in which the luminescence intensity (relative light unit: […] The results are shown in the following Table 26."}, "[1]": {"system": "antigen-induced eosinophil infiltration", "test": "Mouse asthma model (OA-sensitized, antigen-induced eosinophil infiltration in alveolar lavage fluid)", "type": "in vivo", "settings": "hydrochloride, oral administration, 1 mg/kg, for 3 days, female Balb/c mice", "experimental": "Evaluation Using Mouse Asthma Model\nActive sensitization of female Balb/c mice were carried out by intraperitoneally administering ovalbumin (OA) and an adjuvant, aluminum hydroxide gel (alum), twice. Mice were exposed to OA by inhalation 12 days after the initial sensitization and sacrificed by bloodletting 72 hours after the exposure, and then alveolar lavage was carried out. A compound to be tested or a control, 0.5% methyl cellulose, was orally administered for 3 days from before the OA exposure to before the alveolar lavage. After the measurement of total white blood cell count in the alveolar lavage fluid, cell smear preparations were stained to calculate existing ratio of eosinophil based on its morphological characteristics. The total number of eosinophils was calculated from the total white blood cell count and existing ratio of respective kinds of cells."}, "[2]": {"settings": "inhibition ratio at 0.1 μM compound, IL-4-stimulated CI/FW4 cell, luciferase"}, "[3]": {"settings": "inhibition ratio at 1 μM compound, IL-4-stimulated CI/FW4 cell, luciferase"}}, "data": [{"smiles": "NC(=O)c1cnc(Nc2ccc(N3CCOCC3)cc2)nc1NCc1ccccc1", "note": "[Example 3, 4-benzylamino-2-{[4-(morpholin-4-yl)phenyl]amino}pyrimidine-5-carboxamide]", "values": [{"measurement": "inhibition of neutrophil infiltration", "setting": "neutrophil infiltration", "result": "about 70%"}, {"measurement": "inhibition at 0.1 µM", "setting": "STAT 6; [2]", "result": 100, "unit": "%"}, {"measurement": "inhibition at 1 µM", "setting": "STAT 6; [3]", "result": 100, "unit": "%"}, {"measurement": "inhibition of antigen-induced eosinophil infiltration", "setting": "[1]", "result": "about 60%"}]}, {"smiles": "COc1ccccc1CNc1nc(Nc2ccc(N3CCOCC3)cc2)ncc1C(N)=O", "note": "[Example 35]", "values": [{"measurement": "Inh (%) 0.1 μM", "setting": "STAT 6; [2]", "result": 95, "unit": "%"}, {"measurement": "Inh (%) 1 μM", "setting": "STAT 6; [3]", "result": 100, "unit": "%"}]}, {"smiles": "Cc1cccc(Nc2nc(NCCc3ccc(O)c(Cl)c3)ncc2C(N)=O)c1", "note": "[Production Example 99]", "values": [{"measurement": "inhibition of STAT 6-dependent reporter activity (activity similar to the compounds of Table 26)", "setting": "STAT 6; CI/FW4 cell, 10 ng/ml human IL-4, luciferase", "result": "good activity"}]}]}
